{"source": "patent US20080312304A1", "about": "“Topical compositions containing metronidazole” (priority 2007, published 2008)", "key": {"[1]": {"test": "physical stability test of aqueous metronidazole compositions (crystal formation or precipitation)", "type": "physicochemical", "conditions": "for concentration of the solubility enhancing agent required to obtain a stable aqueous solution of 1.0% metronidazole: agent used as the only solubility enhancing agent, stability test of Example 1; for N-2-hydroxyethyl urea concentration functionally equivalent to 1% of the agent in inducing the solubility enhancing effect: worked out from Examples 2, 3 and 4; for Results from stability test: 1.0% metronidazole, 24 hours room temperature, then 7 days at about 4 °C", "experimental": "The solubility enhancing effect of the combination of niacinamide, urea, and hydroxyalkyl urea in increasing the solubility of metronidazole in the aqueous compositions is evaluated by physical stability of the prepared compositions.\nTherefore, the compositions in accordance with the present invention are subject to a physical stability test. The protocol for the stability test is as follows: metronidazole and the solubility enhancing agents are combined with water either at room temperature or elevated temperature while stirring until dissolved. The solutions are permitted to cool to room temperature. Customary auxiliaries and additives may be added to the aqueous solutions containing solubilized metronidazole and solubility enhancing agents. The solutions may be gelled by using the suitable gelling agents. The compositions both in gel or solution form are then packaged in clear glass vials and sealed. The vials are kept at room temperature for 24 hours and monitored for crystal formation or precipitation. After 24 hours, the vials are placed in a refrigerator maintained at a temperature of about 4 ° C. for 7 days. After 7 days, the vials are removed from the refrigerator. Evidence of crystal formation or precipitation in the compositions is examined."}, "[2]": {"conditions": "at 25 °C; cited from earlier work"}}, "data": [{"smiles": "NC(N)=O", "note": "[urea]", "values": [{"measurement": "concentration of the solubility enhancing agent required to obtain a stable aqueous solution of 1.0% metronidazole", "setting": "[1]", "result": "about 10%"}, {"measurement": "N-2-hydroxyethyl urea concentration functionally equivalent to 1% of the agent in inducing the solubility enhancing effect", "setting": "[1]", "result": "about 1.6%"}]}, {"smiles": "NC(=O)NCCO", "note": "[N-2-hydroxyethyl urea]", "values": [{"measurement": "concentration of the solubility enhancing agent required to obtain a stable aqueous solution of 1.0% metronidazole", "setting": "[1]", "result": "about 16%"}]}, {"smiles": "Cc1ncc([N+](=O)[O-])n1CCO", "note": "[Metronidazole, 1-(2-hydroxyethyl)-2-methyl-5-nitroimidazole]", "values": [{"measurement": "Results from stability test", "setting": "[1]; 2% niacinamide in water", "result": "Crystals formed"}, {"measurement": "Results from stability test", "setting": "[1]; 2.0% urea, 2.0% N-2-hydroxyethyl urea, 2.0% niacinamide in water", "result": "Clear (‘clear’ means no crystals or precipitates)"}, {"measurement": "Results from stability test", "setting": "[1]; 3% niacinamide in water", "result": "Crystals formed"}, {"measurement": "Results from stability test", "setting": "[1]; 3.0% urea, 3.0% N-2-hydroxyethyl urea, 1.5% niacinamide in water", "result": "Clear (‘clear’ means no crystals or precipitates)"}, {"measurement": "Results from stability test", "setting": "[1]; 4% niacinamide in water", "result": "Crystals formed"}, {"measurement": "Results from stability test", "setting": "[1]; 5% niacinamide in water", "result": "Clear (‘clear’ means no crystals or precipitates)"}, {"measurement": "Results from stability test", "setting": "[1]; 7% urea in water", "result": "Crystals formed"}, {"measurement": "Results from stability test", "setting": "[1]; 8% urea in water", "result": "Crystals formed"}, {"measurement": "Results from stability test", "setting": "[1]; 9% urea in water", "result": "Crystals formed"}, {"measurement": "Results from stability test", "setting": "[1]; 10% urea in water", "result": "Clear (‘clear’ means no crystals or precipitates)"}, {"measurement": "Results from stability test", "setting": "[1]; 13% N-2-hydroxyethyl urea in water", "result": "Crystals formed"}, {"measurement": "Results from stability test", "setting": "[1]; 14% N-2-hydroxyethyl urea in water", "result": "Crystals formed"}, {"measurement": "Results from stability test", "setting": "[1]; 15% N-2-hydroxyethyl urea in water", "result": "Crystals formed"}, {"measurement": "Results from stability test", "setting": "[1]; 16% N-2-hydroxyethyl urea in water", "result": "Clear (‘clear’ means no crystals or precipitates)"}, {"measurement": "result from the stability test, in words", "setting": "[1]; composition containing 2.0% N-2-hydroxyethyl urea, 2.0% niacinamide, 2.0% urea and 1.0% metronidazole", "result": "stable"}]}, {"smiles": "NC(=O)c1cccnc1", "note": "[niacinamide]", "values": [{"measurement": "water solubility limit", "setting": "[2]", "result": "about 50 % by weight"}, {"measurement": "concentration of the solubility enhancing agent required to obtain a stable aqueous solution of 1.0% metronidazole", "setting": "[1]", "result": "about 5%"}, {"measurement": "N-2-hydroxyethyl urea concentration functionally equivalent to 1% of the agent in inducing the solubility enhancing effect", "setting": "[1]", "result": "about 3.2%"}]}]}
